{"source": "paper PMC11672637", "about": "“7-O-Carboxylic Acid-Substituted 3-O-Alkyl Difluoroquercetin; An Aztreonam-Potentiating Agent Against Carbapenemase-Producing Pseudomonas aeruginosa Through Simultaneous Inhibition of Metallo-β-Lactamase and Efflux Pump” (Antibiotics, 2024)", "assay_in_all_cases": "Time–kill assay", "format_in_all_cases": "cell-based, P. aeruginosa", "conditions_in_all_cases": "for Log CFU/mL, ATM + 5: 24 h", "key": {"PA-002, blaIMP": {"system": "PA-002, blaIMP", "experimental": "(§1) Aliquots (50 μL) were taken from the incubation mixture at regular time intervals (t = 0, 3, 6, and 24 h), serially diluted in 0.85% NaCl solution, and plated on BAP. Bacterial colonies were counted, and the data are presented as the means of at least three independent experiments."}, "PA-014, blaGES": {"system": "PA-014, blaGES", "experimental": "as §1"}, "PA-017, blaNDM": {"system": "PA-017, blaNDM", "experimental": "as §1"}, "PA-003, blaVIM": {"system": "PA-003, blaVIM", "experimental": "as §1"}}}
{"smiles": "CC(C)(C)CCOc1c(-c2ccc(F)c(F)c2)oc2cc(OCC(=O)O)cc(O)c2c1=O", "note": "[Compound 5, 2-((2-(3,4-Difluorophenyl)-3-(3,3-dimethylbutoxy)-5-hydroxy-4-oxo-4H-chromen-7-yl)oxy)acetic Acid]", "values": [{"measurement": "Diff. (ATM + 5, 24 h vs initial inoculum)", "setting": "PA-002, blaIMP; ATM 1/2 MIC + 5 at 8 mg/L", "result": 1.21, "unit": "Log CFU/mL"}, {"measurement": "Diff. (ATM + 5 vs ATM only)", "setting": "PA-002, blaIMP; ATM 1/2 MIC + 5 at 8 mg/L", "result": "−2.36", "unit": "Log CFU/mL"}, {"measurement": "Synergistic activity, interpretation", "setting": "PA-002, blaIMP; ATM 1/2 MIC + 5 at 8 mg/L", "result": "Synergy (a ≥ 2 log10 decrease in CFU/mL for the combination of ATM and 5 compared to ATM alone after 24 h of incubation)"}, {"measurement": "Log CFU/mL, ATM + 5", "setting": "PA-002, blaIMP; ATM 1/2 MIC + 5 at 8 mg/L", "result": 6.66, "unit": "Log CFU/mL"}, {"measurement": "Diff. (ATM + 5, 24 h vs initial inoculum)", "setting": "PA-002, blaIMP; ATM 1/4 MIC + 5 at 8 mg/L", "result": 2.26, "unit": "Log CFU/mL"}, {"measurement": "Diff. (ATM + 5 vs ATM only)", "setting": "PA-002, blaIMP; ATM 1/4 MIC + 5 at 8 mg/L", "result": "−1.77", "unit": "Log CFU/mL"}, {"measurement": "Log CFU/mL, ATM + 5", "setting": "PA-002, blaIMP; ATM 1/4 MIC + 5 at 8 mg/L", "result": 7.71, "unit": "Log CFU/mL"}, {"measurement": "Diff. (ATM + 5, 24 h vs initial inoculum)", "setting": "PA-002, blaIMP; ATM 1 MIC + 5 at 8 mg/L", "result": "−2.42", "unit": "Log CFU/mL"}, {"measurement": "Diff. (ATM + 5 vs ATM only)", "setting": "PA-002, blaIMP; ATM 1 MIC + 5 at 8 mg/L", "result": "−5.12", "unit": "Log CFU/mL"}, {"measurement": "Synergistic activity, interpretation", "setting": "PA-002, blaIMP; ATM 1 MIC + 5 at 8 mg/L", "result": "Synergy (a ≥ 2 log10 decrease in CFU/mL for the combination of ATM and 5 compared to ATM alone after 24 h of incubation)"}, {"measurement": "Log CFU/mL, ATM + 5", "setting": "PA-002, blaIMP; ATM 1 MIC + 5 at 8 mg/L", "result": 3.03, "unit": "Log CFU/mL"}, {"measurement": "Diff. (ATM + 5, 24 h vs initial inoculum)", "setting": "PA-002, blaIMP; ATM 2 MIC + 5 at 8 mg/L", "result": "−5.45", "unit": "Log CFU/mL"}, {"measurement": "Diff. (ATM + 5 vs ATM only)", "setting": "PA-002, blaIMP; ATM 2 MIC + 5 at 8 mg/L", "result": "−5.5", "unit": "Log CFU/mL"}, {"measurement": "Synergistic activity, interpretation", "setting": "PA-002, blaIMP; ATM 2 MIC + 5 at 8 mg/L", "result": "Synergy (a ≥ 2 log10 decrease in CFU/mL for the combination of ATM and 5 compared to ATM alone after 24 h of incubation)"}, {"measurement": "Log CFU/mL, ATM + 5", "setting": "PA-002, blaIMP; ATM 2 MIC + 5 at 8 mg/L", "result": 0.00, "unit": "Log CFU/mL"}, {"measurement": "Diff. (ATM + 5, 24 h vs initial inoculum)", "setting": "PA-014, blaGES; ATM 1/2 MIC + 5 at 8 mg/L", "result": 1.65, "unit": "Log CFU/mL"}, {"measurement": "Diff. (ATM + 5 vs ATM only)", "setting": "PA-014, blaGES; ATM 1/2 MIC + 5 at 8 mg/L", "result": "−2.23", "unit": "Log CFU/mL"}, {"measurement": "Synergistic activity, interpretation", "setting": "PA-014, blaGES; ATM 1/2 MIC + 5 at 8 mg/L", "result": "Synergy (a ≥ 2 log10 decrease in CFU/mL for the combination of ATM and 5 compared to ATM alone after 24 h of incubation)"}, {"measurement": "Log CFU/mL, ATM + 5", "setting": "PA-014, blaGES; ATM 1/2 MIC + 5 at 8 mg/L", "result": 6.60, "unit": "Log CFU/mL"}, {"measurement": "Diff. (ATM + 5, 24 h vs initial inoculum)", "setting": "PA-014, blaGES; ATM 1/4 MIC + 5 at 8 mg/L", "result": 3.88, "unit": "Log CFU/mL"}, {"measurement": "Diff. (ATM + 5 vs ATM only)", "setting": "PA-014, blaGES; ATM 1/4 MIC + 5 at 8 mg/L", "result": "−0.5", "unit": "Log CFU/mL"}, {"measurement": "Log CFU/mL, ATM + 5", "setting": "PA-014, blaGES; ATM 1/4 MIC + 5 at 8 mg/L", "result": 8.83, "unit": "Log CFU/mL"}, {"measurement": "Diff. (ATM + 5, 24 h vs initial inoculum)", "setting": "PA-014, blaGES; ATM 1 MIC + 5 at 8 mg/L", "result": "−2.32", "unit": "Log CFU/mL"}, {"measurement": "Diff. (ATM + 5 vs ATM only)", "setting": "PA-014, blaGES; ATM 1 MIC + 5 at 8 mg/L", "result": "−5.05", "unit": "Log CFU/mL"}, {"measurement": "Synergistic activity, interpretation", "setting": "PA-014, blaGES; ATM 1 MIC + 5 at 8 mg/L", "result": "Synergy (a ≥ 2 log10 decrease in CFU/mL for the combination of ATM and 5 compared to ATM alone after 24 h of incubation)"}, {"measurement": "Log CFU/mL, ATM + 5", "setting": "PA-014, blaGES; ATM 1 MIC + 5 at 8 mg/L", "result": 2.63, "unit": "Log CFU/mL"}, {"measurement": "Diff. (ATM + 5, 24 h vs initial inoculum)", "setting": "PA-014, blaGES; ATM 2 MIC + 5 at 8 mg/L", "result": "−4.8", "unit": "Log CFU/mL"}, {"measurement": "Diff. (ATM + 5 vs ATM only)", "setting": "PA-014, blaGES; ATM 2 MIC + 5 at 8 mg/L", "result": "−2.3", "unit": "Log CFU/mL"}, {"measurement": "Synergistic activity, interpretation", "setting": "PA-014, blaGES; ATM 2 MIC + 5 at 8 mg/L", "result": "Synergy (a ≥ 2 log10 decrease in CFU/mL for the combination of ATM and 5 compared to ATM alone after 24 h of incubation)"}, {"measurement": "Log CFU/mL, ATM + 5", "setting": "PA-014, blaGES; ATM 2 MIC + 5 at 8 mg/L", "result": 0.15, "unit": "Log CFU/mL"}, {"measurement": "Diff. (ATM + 5, 24 h vs initial inoculum)", "setting": "PA-017, blaNDM; ATM 1/2 MIC + 5 at 8 mg/L", "result": 1.52, "unit": "Log CFU/mL"}, {"measurement": "Diff. (ATM + 5 vs ATM only)", "setting": "PA-017, blaNDM; ATM 1/2 MIC + 5 at 8 mg/L", "result": "−3.45", "unit": "Log CFU/mL"}, {"measurement": "Synergistic activity, interpretation", "setting": "PA-017, blaNDM; ATM 1/2 MIC + 5 at 8 mg/L", "result": "Synergy (a ≥ 2 log10 decrease in CFU/mL for the combination of ATM and 5 compared to ATM alone after 24 h of incubation)"}, {"measurement": "Log CFU/mL, ATM + 5", "setting": "PA-017, blaNDM; ATM 1/2 MIC + 5 at 8 mg/L", "result": 6.52, "unit": "Log CFU/mL"}, {"measurement": "Diff. (ATM + 5, 24 h vs initial inoculum)", "setting": "PA-017, blaNDM; ATM 1/4 MIC + 5 at 8 mg/L", "result": 4.97, "unit": "Log CFU/mL"}, {"measurement": "Diff. (ATM + 5 vs ATM only)", "setting": "PA-017, blaNDM; ATM 1/4 MIC + 5 at 8 mg/L", "result": "−0.77", "unit": "Log CFU/mL"}, {"measurement": "Log CFU/mL, ATM + 5", "setting": "PA-017, blaNDM; ATM 1/4 MIC + 5 at 8 mg/L", "result": 9.97, "unit": "Log CFU/mL"}, {"measurement": "Diff. (ATM + 5, 24 h vs initial inoculum)", "setting": "PA-017, blaNDM; ATM 1 MIC + 5 at 8 mg/L", "result": "−4.75", "unit": "Log CFU/mL"}, {"measurement": "Diff. (ATM + 5 vs ATM only)", "setting": "PA-017, blaNDM; ATM 1 MIC + 5 at 8 mg/L", "result": "−6.27", "unit": "Log CFU/mL"}, {"measurement": "Synergistic activity, interpretation", "setting": "PA-017, blaNDM; ATM 1 MIC + 5 at 8 mg/L", "result": "Synergy (a ≥ 2 log10 decrease in CFU/mL for the combination of ATM and 5 compared to ATM alone after 24 h of incubation)"}, {"measurement": "Log CFU/mL, ATM + 5", "setting": "PA-017, blaNDM; ATM 1 MIC + 5 at 8 mg/L", "result": 0.25, "unit": "Log CFU/mL"}, {"measurement": "Diff. (ATM + 5, 24 h vs initial inoculum)", "setting": "PA-017, blaNDM; ATM 2 MIC + 5 at 8 mg/L", "result": "−5.00", "unit": "Log CFU/mL"}, {"measurement": "Diff. (ATM + 5 vs ATM only)", "setting": "PA-017, blaNDM; ATM 2 MIC + 5 at 8 mg/L", "result": "−0.12", "unit": "Log CFU/mL"}, {"measurement": "Log CFU/mL, ATM + 5", "setting": "PA-017, blaNDM; ATM 2 MIC + 5 at 8 mg/L", "result": 0.00, "unit": "Log CFU/mL"}, {"measurement": "Diff. (ATM + 5, 24 h vs initial inoculum)", "setting": "PA-003, blaVIM; ATM 1/2 MIC + 5 at 8 mg/L", "result": 4.11, "unit": "Log CFU/mL"}, {"measurement": "Diff. (ATM + 5 vs ATM only)", "setting": "PA-003, blaVIM; ATM 1/2 MIC + 5 at 8 mg/L", "result": "−0.04", "unit": "Log CFU/mL"}, {"measurement": "Log CFU/mL, ATM + 5", "setting": "PA-003, blaVIM; ATM 1/2 MIC + 5 at 8 mg/L", "result": 9.84, "unit": "Log CFU/mL"}, {"measurement": "Diff. (ATM + 5, 24 h vs initial inoculum)", "setting": "PA-003, blaVIM; ATM 1/4 MIC + 5 at 8 mg/L", "result": 4.35, "unit": "Log CFU/mL"}, {"measurement": "Diff. (ATM + 5 vs ATM only)", "setting": "PA-003, blaVIM; ATM 1/4 MIC + 5 at 8 mg/L", "result": "−0.1", "unit": "Log CFU/mL"}, {"measurement": "Log CFU/mL, ATM + 5", "setting": "PA-003, blaVIM; ATM 1/4 MIC + 5 at 8 mg/L", "result": 10.08, "unit": "Log CFU/mL"}, {"measurement": "Diff. (ATM + 5, 24 h vs initial inoculum)", "setting": "PA-003, blaVIM; ATM 1 MIC + 5 at 8 mg/L", "result": "−5.5", "unit": "Log CFU/mL"}, {"measurement": "Diff. (ATM + 5 vs ATM only)", "setting": "PA-003, blaVIM; ATM 1 MIC + 5 at 8 mg/L", "result": "−8.9", "unit": "Log CFU/mL"}, {"measurement": "Synergistic activity, interpretation", "setting": "PA-003, blaVIM; ATM 1 MIC + 5 at 8 mg/L", "result": "Synergy (a ≥ 2 log10 decrease in CFU/mL for the combination of ATM and 5 compared to ATM alone after 24 h of incubation)"}, {"measurement": "Log CFU/mL, ATM + 5", "setting": "PA-003, blaVIM; ATM 1 MIC + 5 at 8 mg/L", "result": 0.23, "unit": "Log CFU/mL"}]}
